These results are taken from patent US7524866B2, “Prevention and treatment of androgen—deprivation induced osteoporosis” (GTx, Inc., priority 2001, dated 2009).

The subject of assay [1] is RatLaps (CTX) in rat serum. As to the kind of experiment: CTX (RatLaps) in rat serum (Example 4). Format: in vivo. The conditions noted are these: Orx rats. As for the experimental part: The assay was performed in duplicates, each 20 ul of serum as well as standards and control. Briefly, 100 ul of Biotinylated RatLaps Antigen was incubated 30 min in each well, strips were washed and 20 ul of Standard, Control and unknown samples were added to appropriate wells, followed by 100 ul of primary antibody (polyclonal Ab raised against a synthetic peptide EKSQDGGR specific for a part of the C-terminal telopeptide alpha 1 chain of rat type I collagen). After overnight incubation at 4 C., the wells were washed and 100 ul of Peroxidase conjugated Goat anti-Rabbit IgG Antibody was added to each well and incubated 60 min. After washing the strips 100 ul of the Chromogenic Substrate Solution was added to each well, and after 15 min the reaction was stopped and the absorbance was measured at 450 nm. The means of the duplicate absorbance determination were calculated, and a standard curve was constructed using 4-parametric logistic curve fit. Sample RatLaps concentrations were determined by interpolation.
Eight month-old male Sprague Dawley rats were either sham-operated (SHAM) or orchidectomized (ORX). Treatment began immediately following surgery. The treatment groups were as described in Table 5.

In assay [2] the test system is orchidectomized (Orx/Cx) male Sprague-Dawley rats. In words: Compression test of the distal right femur (Example 3). The conditions noted are these: Toremifene 5 mg/kg/day; for mechanical strength parameters of the distal femur (maximum load, stiffness, ultimate strength, elastic modulus): Orx rats, 17-β-Estradiol 0.5 mg/kg/day s.c.; for Elastic Modulus / Energy / Maximum Load / Stiffness / Toughness / Ultimate Strength / CSA (cross sectional area): castrated (Cx) rats, n=5, 17-β-estradiol 0.5 mg/kg/day s.c.; for Elastic Modulus / Energy / Maximum Load / Stiffness / Toughness / Ultimate Strength: distal right femur compression; for CSA (cross sectional area): distal right femur specimen. Format: in vivo, rat. On the procedure: Using a Material Testing System (Model 5501R Instron Corp., Canton, Mass.), two types of mechanical testing were performed on the right femur. The load and extension curves were collected by the machine software (Merlin II, Instron Corp.). All tests were conducted using a 5 kN load cell at a constant loading rate of 6 mm/min. The general applications of the tests were as described in Turner and Burr (Bone, 1993; 14: 595-608) and Ke et al (Bone, 1998; 23, 249-255).
Compression Test of the Distal Femur
A compression test was used to determine the mechanical properties of the distal femur. The distal femur test specimen was obtained by removing a 3 mm segment directly proximal to the distal condyle using a slow speed diamond saw with constant saline irrigation. An electronic caliper was used to measure the average anterior/posterior diameter (a), medial/lateral diameter (b), and height (h) of the bone. The extrinsic parameters, maximal load (Fu), stiffness (S) and energy (W), were obtained from the load and extension curve. The following intrinsic parameters were calculated from the measured values: Cross sectional area (CSA)=(π*a*b)/4; Ultimate Strength (σ)=Fu/CSA; Elastic modulus (E)=S/(CSA/h); Toughness (T)=W/(CSA*h).

The test system of assay [3] is rat Osteocalcin in serum. As to the kind of experiment: Rat Osteocalcin EIA in serum, orchidectomy model (Example 3). The conditions noted are these: castrated rats. Format: in vivo. As for the experimental part:
(§1) Male Sprague-Dawley rats (Harlan Sprague Dawley) were placed on study at 14-weeks of age. They were randomized and divided into five treatment groups: vehicle only (placebo, or P) after sham operation, vehicle only after orchidectomy (Orx), Toremifene (5 mg/kg/day) after sham-operation, and Toremifene after orchidectomy, and 17-β-estradiol (0.5 mg/kg/day) after orchidectomy. Test articles were delivered subcutaneously by Alzet pumps. Pumps were re-implanted every 30 days until the end of the study. Five to six animals from each group were sacrificed after 60 and 120 days of treatment, and femurs were harvested, stripped of soft tissue and muscle, and stored individually in polypropylene vials at −80° C. until analysis of bone density and mechanical strength testing. Additionally, serum was collected on days 15, 30, 60, 90 and 120, to measure markers of bone metabolism and to perform serum chemistry.
After collection, serum was divided into 3 aliquots and stored at −80° C. until analysis. 125 ul for serum biochemistry performed by AniLytics, Gaithersburg, Md. (Bone-Specific Alkaline Phosphatase, Calcium, Phosphorus, Creatinine and Bilirubin). 100 ul for serum Rat Osteocalcin ELISA and Serum RatLaps ELISA for C-terminal telopeptides determination. The rest of the collected serum was left for repeated test if necessary.
Rat Osteocalcin EIA, Biomedical Technologies, MA
This assay is specific for rat Osteocalcin and both carboxylated and decarboxylated rat Osteocalcin are recognized. A monoclonal antibody against the N-terminal region of Osteocalcin is bound to the polystyrene wells. The assay was performed in duplicates. 100 ul of standards, control and 1 to 20 diluted samples were added to appropriate wells and incubated overnight at 4 C. After washing the strips, 100 ul of Goat polyclonal antibody of high specificity for C-terminus of rat Osteocalcin was added and incubated 60 min at 37 C. […] The reaction was stopped, and the absorbance was measured at 450 nm. […] Sample osteocalcin concentrations were determined by interpolation.

The test system of assay [4] is C-telopeptide of rat collagen I in serum. In words: Serum RatLaps ELISA, C-telopeptide of type I collagen, orchidectomy model (Example 3). The format is in vivo. The conditions noted are these: orchidectomized rats, 15 and 30 days; Toremifene 5 mg/kg/day, 17-β-estradiol 0.5 mg/kg/day s.c.; FIG. 1. On the procedure:
as §1, with “chemistry. […]” for “chemistry.”
The assay was performed in duplicates, each 20 ul of serum as well as standards and control. […] After washing the strips 100 ul of the Chromogenic Substrate Solution was added to each well, and after 15 min the reaction was stopped and the absorbance was measured at 450 nm. The means of the duplicate absorbance determination were calculated, and a standard curve was constructed using 4-parametric logistic curve fit. Sample RatLaps concentrations were determined by interpolation.

Where [5] appears, read: 28 days, E 0.2 mg/kg/d, 10 mg Tor.
[6] abbreviates: 42 days, E 0.2 mg/kg/d, 10 mg-Tor.
[7] abbreviates: up to 120 days, Toremifene 5 mg/kg/day, 17-β-estradiol 0.5 mg/kg/day s.c., FIG. 2B.

Regarding `CN(C)CCOc1ccc(/C(=C(/CCCl)c2ccccc2)c2ccccc2)cc1` [Toremifene], the “CTX levels in serum” value in assay [1] (10 days) was “Neither E nor Tor had any effect on CTX”. In assay [1] (setting [5]), the “CTX levels in serum” value is listed as “reduced the CTX levels”. In assay [1] (setting [6]), the “CTX levels in serum” value is “significantly lower CTX levels”. In addition, the “effect on CTX” value in assay [1] (5 mg Tor) is “not uniform and cannot be interpreted”. In addition, in assay [2], the “mechanical strength parameters of the distal femur (maximum load, stiffness, ultimate strength, elastic modulus)” value is “improved various parameters to a level that was better than Sham-operated animals”; the “Elastic Modulus” value is given as 579.07 MPa; the Energy is recorded as 56.96 mJ; the “Maximum Load” value was 467.01 N. Further, in assay [2], the Stiffness was 3856.71 N/mm, the Toughness stood at 0.86 MJ/m³, the “Ultimate Strength” value came out at 22.13 N/mm^2 and the “CSA (cross sectional area)” value worked out at 21.30 mm^2. Moreover, in assay [3] (15 days (p<0.05) and 30 days (p<0.02), Toremifene 5 mg/kg/day s.c., FIG. 2A), the serum osteocalcin levels result is “significantly reduced the osteocalcin levels in castrated animals to intact control levels”. Moreover, the serum osteocalcin levels result in assay [3] (setting [7]) was “significantly reduce osteocalcin levels to below that of intact control rats”. Also, the “C-telopeptide levels in serum” value in assay [4] is “reduced the C-telopeptide levels to or below control values”.

As for `C[C@]12CC[C@@H]3c4ccc(O)cc4CC[C@H]3[C@@H]1CC[C@@H]2O` [17-β-Estradiol], the “CTX levels in serum” value in assay [1] (10 days) is “Neither E nor Tor had any effect on CTX”. Further, the “CTX levels in serum” value in assay [1] (setting [5]) was “reduced the CTX levels”. The “CTX levels in serum” value in assay [1] (setting [6]) is recorded as “CTX levels did not change further”. In addition, in assay [2], the “mechanical strength parameters of the distal femur (maximum load, stiffness, ultimate strength, elastic modulus)” value is recorded as “statistically significant improvements in these parameter values”; the “Elastic Modulus” value is reported as 753.44 MPa; the Energy worked out at 58.28 mJ; the “Maximum Load” value is on record as 613.61 N. In assay [2], the Stiffness worked out at 4842.67 N/mm, the Toughness amounted to 0.98 MJ/m³, the “Ultimate Strength” value turned out to be 31.23 N/mm^2 and the “CSA (cross sectional area)” value is 19.75 mm^2. The serum osteocalcin levels entry in assay [3] (setting [7]) is “significantly reduce osteocalcin levels to below that of intact control rats”. Further, the “C-telopeptide levels in serum” value in assay [4] is “reduced the C-telopeptide levels to or below control values”.
